The text below walks through data of patent US20090197880A1 (Genelabs Technologies, Inc., priority 2007, published 2009).

The first experiment is described as follows: HCV replicon assay (luciferase) in ET (Huh-lucubineo-ET) cell line. The settings on record: Hepatitis C virus; tested at 5 μM; inhibition of replication relative to no compound control; ET replicon cells, luciferase 48-72 hours. The experiment is classed as cell-based. An excerpt:
A cell line, ET (Huh-lucubineo-ET) was used for screening of compounds, or pharmaceutically acceptable salts or solvates, described herein for inhibition of HCV RNA dependent RNA polymerase. The ET cell line was stably transfected with RNA transcripts harboring a I389luc-ubi-neo/NS3-3′/ET; replicon with firefly luciferase-ubiquitin-neomycin phosphotransferase fusion protein and EMCV-IRES driven NS3-5B polyprotein containing the cell culture adaptive mutations (E1202G; T1280I; K1846T) (Krieger at al, 2001 and unpublished). The ET cells were grown in DMEM, supplemented with 10% fetal calf serum, 2 mM Glutamine, Penicillin (100 IU/mL)/Streptomycin (100 μg/mL), 1× nonessential amino acids, and 250 μg/mL G418 (“Geneticin”). They were all available through Life Technologies (Bethesda, Md.). The cells were plated at 0.5−1.0×10^4 cells/well in the 96 well plates and incubated for 24 hrs before adding the test compounds. […] Luciferase activity was measured 48-72 hours later by adding a lysis buffer and the substrate (Catalog number Glo-lysis buffer E2661 and Bright-Glo luciferase system E2620 Promega, Madison, Wis.). Cells should not be too confluent during the assay. Percent inhibition of replication was plotted relative to no compound control. Under the same condition, cytotoxicity of the compounds was determined using cell proliferation reagent, WST-1 (Roche, Germany). The compounds showing antiviral activities, but no significant cytotoxicities were chosen to determine the EC50 and TC50, the effective concentration and toxic concentration at which 50% of the maximum inhibition is observed. For these determinations, 6 dilutions of each compound were used. Compounds were typically diluted 3 fold to span a concentration range of 250 fold. EC50 and similarly TC50 values were calculated by fitting % inhibition at each concentration to the following equation:
% inhibition=100%/[(EC50/[I])^b+1]
where b is Hill's coefficient.
(A replicon is a self-replicating genome or part of one, used to study replication in cells.)
As for `CCCOc1ccc(-c2cc(Cn3cc4nc(-c5cccc(F)c5F)nc-4cn3)on2)cc1` [Compound 105, 2-(2,3-Difluoro-phenyl)-5-[3-(4-propoxy-phenyl)-isoxazol-5-ylmethyl]-5H-imidazo[4,5-d]pyridazine], the inhibition at 5 µM worked out at 99.9%.
The same measure, in the same setting: in the case of `CCCOc1ccc(-c2cc(Cn3cc4nc(-c5ccccc5F)nc-4cn3)on2)cc1` [Compound 117, 2-(2-Fluoro-phenyl)-5-[3-(4-propoxy-phenyl)-isoxazol-5-ylmethyl]-5H-imidazo[4,5-d]pyridazine] it was 99.8%.
On to `Fc1ccc(-c2cc(Cn3cc4nc(-c5ccccc5F)nc-4cn3)on2)c(C(F)(F)F)c1` [Compound 115, 2-(2-Fluoro-phenyl)-5-[3-(4-fluoro-2-trifluoromethyl-phenyl)-isoxazol-5-ylmethyl]-5H-imidazo[4,5-d]pyridazine], for which the inhibition at 5 µM turned out to be 67.6%.
The same measure, in the same setting: in the case of `Fc1ccccc1-c1nc2cnn(Cc3cc(-c4ccc(C(F)(F)F)cc4C(F)(F)F)no3)cc-2n1` [Compound 114, 5-[3-(2,4-Bis-trifluoromethyl-phenyl)-isoxazol-5-ylmethyl]-2-(2-fluoro-phenyl)-5H-imidazo[4,5-d]pyridazine] it was 99.3%.

The experiment is the same for the next values; noted with them: Hepatitis C virus; tested at 10 μM; inhibition of replication relative to no compound control; ET replicon cells, luciferase 48-72 hours; read-out: % inhition at 10 μM.
On to `CC(=O)c1ccc(F)c(-c2nc3cnn(Cc4cc(-c5ccc(C(F)(F)F)cc5C(F)(F)F)no4)cc-3n2)c1` [Compound 137, 1-(3-{5-[3-(2,4-Bis-trifluoromethyl-phenyl)-isoxazol-5-ylmethyl]-5H-imidazo[4,5-d]pyridazin-2-yl}-4-fluoro-phenyl)-ethanone], for which the inhibition at 10 µM came out at 40.4%.
Still for that read-out and setting: under `CCCOc1ccc(-c2ccc(-c3cc(Cn4cc5nc(-c6cccc(F)c6F)nc-5cn4)on3)cc2)cc1` [Compound 269, 2-(2,3-Difluoro-phenyl)-5-[3-(4′-propoxy-biphenyl-4-yl)-isoxazol-5-ylmethyl]-5H-imidazo[4,5-d]pyridazine] stands 36.6%; under `C[Si](C)(C)C#Cc1ccc(-c2cc(Cn3cc4nc(-c5cccc(F)c5F)nc-4cn3)on2)cc1` [Compound 332, 2-(2,3-Difluoro-phenyl)-5-[3-(4-trimethylsilanylethynyl-phenyl)-isoxazol-5-ylmethyl]-5H-imidazo[4,5-d]pyridazine], 99%.
Still for that read-out and setting: under `CCCCCc1ccc(-c2cc(Cn3cc4nc(-c5cccc(F)c5F)nc-4cn3)on2)cc1` [Compound 191, 2-(2,3-Difluoro-phenyl)-5-[3-(4-pentyl-phenyl)-isoxazol-5-ylmethyl]-5H-imidazo[4,5-d]pyridazine] stands 99.8%; under `Fc1cc(C(F)(F)F)ccc1-c1cc(Cn2ccc3nc(-c4cccc(F)c4F)nc-3n2)on1` [Compound 247, 6-(2,3-Difluoro-phenyl)-2-[3-(2-fluoro-4-trifluoromethyl-phenyl)-isoxazol-5-ylmethyl]-2H-imidazo[4,5-c]pyridazine], 80%.
Still for that read-out and setting: in the case of `OCCCOc1ccc(-c2cc(Cn3cc4nc(-c5cccc(F)c5F)nc-4cn3)on2)cc1` [Compound 193, 3-(4-{5-[2-(2,3-difluoro-phenyl)-imidazo[4,5-d]pyridazin-5-ylmethyl]-isoxazol-3-yl}-phenoxy)-propan-1-ol] it was 76.3%.
On to `COc1ccc(-c2cc(Cn3cc4nc(-c5cccc(F)c5F)nc-4cn3)on2)c(C)c1` [Compound 171, 2-(2,3-Difluoro-phenyl)-5-[3-(4-methoxy-2-methyl-phenyl)-isoxazol-5-ylmethyl]-5H-imidazo[4,5-d]pyridazine], for which the inhibition at 10 µM was 91.5%.
Same read-out and setting: under `Nc1ccccc1-c1nc2cnn(Cc3cc(-c4ccc(C(F)(F)F)cc4C(F)(F)F)no3)cc-2n1` [Compound 119, 2-{5-[3-(2,4-Bis-trifluoromethyl-phenyl)-isoxazol-5-ylmethyl]-5H-imidazo[4,5-d]pyridazine-2-yl}-phenylamine] stands 0%; under `CCCOc1ccc(-c2cc(Cn3cc4nc(-c5cccc(F)c5F)nc-4cn3)on2)cc1` [Compound 105, 2-(2,3-Difluoro-phenyl)-5-[3-(4-propoxy-phenyl)-isoxazol-5-ylmethyl]-5H-imidazo[4,5-d]pyridazine], 99.7%; under `COc1ccc(-c2ccc(-c3cc(Cn4cc5nc(-c6cccc(F)c6F)nc-5cn4)on3)cc2)cc1` [Compound 268, 2-(2,3-Difluoro-phenyl)-5-[3-(4′-methoxy-biphenyl-4-yl)-isoxazol-5-ylmethyl]-5H-imidazo[4,5-d]pyridazine], 93.7%.
Same read-out and setting: in the case of `Fc1ccccc1-c1nc2cnn(Cc3cc(-c4ccc(C(F)(F)F)cc4)no3)cc-2n1` [Compound 278, 2-(2-Fluoro-phenyl)-5-[3-(4-trifluoromethyl-phenyl)-isoxazol-5-ylmethyl]-5H-imidazo[4,5-d]pyridazine] it was 99.7%; in that of `CCCCc1ccc(-c2cc(Cn3cc4nc(-c5cccc(F)c5F)nc-4cn3)on2)cn1` [Compound 301, 5-[3-(6-Butyl-pyridin-3-yl)-isoxazol-5-ylmethyl]-2-(2,3-difluoro-phenyl)-5H-imidazo[4,5-d]pyridazine], 97.3%.
Still for that read-out and setting: in the case of `CC(C)(C)C#Cc1ccc(-c2cc(Cn3cc4nc(-c5cccc(F)c5F)nc-4cn3)on2)cc1` [Compound 333, 2-(2,3-Difluoro-phenyl)-5-{3-[4-(3,3-dimethyl-but-1-ynyl)-phenyl]-isoxazol-5-ylmethyl}-5H-imidazo[4,5-d]pyridazine] it was 86.4%; in that of `Fc1cccc(-c2nc3cnn(Cc4cc(-c5ccc(CN6CCCCC6)cc5)no4)cc-3n2)c1F` [Compound 157, 2-(2,3-Difluoro-phenyl)-5-[3-(4-piperidin-1-ylmethyl-phenyl)-isoxazol-5-ylmethyl]-5H-imidazo[4,5-d]pyridazine], 9.99%; in that of `CCCOc1ccc(-c2cc(Cn3cc4nc(-c5ccccc5F)nc-4cn3)on2)cc1` [Compound 117, 2-(2-Fluoro-phenyl)-5-[3-(4-propoxy-phenyl)-isoxazol-5-ylmethyl]-5H-imidazo[4,5-d]pyridazine], 99.1%.
For `FC(F)(F)c1ccc(-c2cc(Cn3cc4nc(N5CCc6ccccc6C5)nc-4cn3)on2)c(C(F)(F)F)c1` [Compound 257, 2-{5-[3-(2,4-Bis-trifluoromethyl-phenyl)-isoxazol-5-ylmethyl]-5H-imidazo[4,5-d]pyridazin-2-yl}-1,2,3,4-tetrahydro-isoquinoline], the inhibition at 10 µM worked out at 0.87%.
Still for that read-out and setting: under `Fc1cccc(-c2nc3cnn(Cc4cc(-c5ccc(OC(F)F)cc5OC(F)F)no4)cc-3n2)c1F` [Compound 169, 5-[3-(2,4-Bis-difluoromethoxy-phenyl)-isoxazol-5-ylmethyl]-2-(2,3-difluoro-phenyl)-5H-imidazo[4,5-d]pyridazine] stands 83.6%.
Still for that read-out and setting: under `COC(=O)CCCOc1ccc(-c2cc(Cn3cc4nc(-c5cccc(F)c5F)nc-4cn3)on2)cc1` [Compound 192, 4-(4-{5-[2-(2,3-difluoro-phenyl)-imidazo[4,5-d]pyridazin-5-ylmethyl]-isoxazol-3-yl}-phenoxy)-butyric acid methyl ester] stands 54.1%; under `COCCOc1ccc(-c2cc(Cn3cc4nc(-c5cccc(F)c5F)nc-4cn3)on2)c(C(F)(F)F)c1` [Compound 320, 2-(2,3-Difluoro-phenyl)-5-{3-[4-(2-methoxy-ethoxy)-2-trifluoromethyl-phenyl]-isoxazol-5-ylmethyl}-5H-imidazo[4,5-d]pyridazine], 99.8%; under `Fc1cccc(-c2nc3cnn(Cc4cc(-c5ccc(-c6cnoc6)cc5C(F)(F)F)no4)cc-3n2)c1F` [Compound 321, 2-(2,3-Difluoro-phenyl)-5-[3-(4-isoxazol-4-yl-2-trifluoromethyl-phenyl)-isoxazol-5-ylmethyl]-5H-imidazo[4,5-d]pyridazine], 82.5%.
Still for that read-out and setting: in the case of `Fc1ccc(-c2cc(Cn3cc4nc(-c5ccccc5F)nc-4cn3)on2)c(C(F)(F)F)c1` [Compound 115, 2-(2-Fluoro-phenyl)-5-[3-(4-fluoro-2-trifluoromethyl-phenyl)-isoxazol-5-ylmethyl]-5H-imidazo[4,5-d]pyridazine] it was 75.3%.
As for `Fc1cccc(CNc2nc3cnn(Cc4cc(-c5ccc(C(F)(F)F)cc5C(F)(F)F)no4)cc-3n2)c1F` [Compound 255, {5-[3-(2,4-Bis-trifluoromethyl-phenyl)-isoxazol-5-ylmethyl]-5H-imidazo[4,5-d]pyridazin-2-yl}-(2,3-difluoro-benzyl)-amine], the inhibition at 10 µM came to 4.67%.
Still for that read-out and setting: under `Fc1ccccc1-c1nc2cnn(Cc3cc(-c4ccc(C(F)(F)F)cc4C(F)(F)F)no3)cc-2n1` [Compound 114, 5-[3-(2,4-Bis-trifluoromethyl-phenyl)-isoxazol-5-ylmethyl]-2-(2-fluoro-phenyl)-5H-imidazo[4,5-d]pyridazine] stands 98.5%; under `Fc1cccc(-c2nc3cnn(Cc4cc(-c5ccc(OC(F)(F)F)cc5)on4)cc-3n2)c1F` [Compound 242, 2-(2,3-Difluoro-phenyl)-5-[5-(4-trifluoromethoxy-phenyl)-isoxazol-3-ylmethyl]-5H-imidazo[4,5-d]pyridazine], 97%.
Still for that read-out and setting: under `Fc1cccc(F)c1-c1nc2cnn(Cc3cc(-c4ccc(C(F)(F)F)cc4C(F)(F)F)no3)cc-2n1` [Compound 140, 5-[3-(2,4-Bis-trifluoromethyl-phenyl)-isoxazol-5-ylmethyl]-2-(2,6-difluoro-phenyl)-5H-imidazo[4,5-d]pyridazine] stands 82.7%.
Still for that read-out and setting: in the case of `O=C(COc1ccc(-c2cc(Cn3cc4nc(-c5cccc(F)c5F)nc-4cn3)on2)c(C(F)(F)F)c1)N1CCCCC1` [Compound 325, 2-(4-{5-[2-(2,3-Difluoro-phenyl)-imidazo[4,5-d]pyridazin-5-ylmethyl]-isoxazol-3-yl}-3-trifluoromethyl-phenoxy)-1-piperidin-1-yl-ethanone] it was 8.2%.
